This is an account of results in PMC4287843 (ACS Chemical Biology, 2014).

The test system of series [1] is SMN2 mini-gene splicing in COS7 cells expressing r(CGG)60X. The series can be described thus: SMN2 alternative pre-mRNA splicing in FXTAS cell culture model. The format is cell-based.
The test system of another series is r(CGG)12-DGCR8Δ complex. The note with it: read-out: IC50 for disrupting binding of DGCR8Δ; in vitro; cited from earlier work.
The target of the next series is r(CGG) repeats. The note with it: cited from earlier work.
Series [2] addresses T1, DGCR8Δ (UniProt Q8WYQ5 493-720).
T1 sequence: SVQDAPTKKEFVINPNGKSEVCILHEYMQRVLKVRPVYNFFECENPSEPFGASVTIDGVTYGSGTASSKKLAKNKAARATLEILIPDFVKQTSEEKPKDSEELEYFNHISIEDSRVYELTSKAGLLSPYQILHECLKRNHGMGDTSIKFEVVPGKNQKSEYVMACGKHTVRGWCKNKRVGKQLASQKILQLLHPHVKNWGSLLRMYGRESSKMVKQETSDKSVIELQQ
The series can be described thus: TR-FRET. (In general: TR-FRET usually uses a lanthanide donor and a delayed reading to cut background.)

Series [3] concerns the target T1, DGCR8Δ. The series can be described thus: EMSA. On the technique in general: In EMSA bound probe runs differently from free probe, usually more slowly.

Strand notation (5' to 3'): a small letter for the sugar, then the base; units joined by * are phosphorothioate-linked, units joined directly phosphodiester-linked; [ ] holds rarer units or linkages, { } end groups; capitals alone tell only the bases. m = 2'-O-methyl

One may read the IC50 as the concentration that inhibits the measured activity by half. What is called Kd is the concentration at which binding is half-saturated.

“2’OMe-PS-(CUGCGCGUAUUAGUCUACAAGUAAGGGCU-ACGACCU) (mC*mU*mG*mC*mG*mC*mG*mU*mA*mU*mU*mA*mG*mU*mC*mU*mA*mC*mA*mA*mG*mU*mA*mA*mG*mG*mG*mC*mU*mA*mC*mG*mA*mC*mC*mU) [scrambled oligonucleotide]”: the “effect on SMN2 splicing defect” value in series [1] (100 and 500 nM oligo (not 4 or 20 nM)) was “exacerbates splicing defects”.
In the case of `Cc1c2cc[n+](CCN3CCCCC3)cc2c(C)c2c1[nH]c1ccc(O)cc12` [1a, 9-hydroxy-5,11-dimethyl-2-(2-(piperidin-1-yl)ethyl)-6H-pyrido[4,3-b]carbazol-2-ium], the “fold less potent than 2H-5 for improving pre-mRNA splicing defects” value in series [1] is listed as ~10 fold. Also, the half-maximal inhibitory concentration (IC50) in the series on r(CGG)12-DGCR8Δ complex was 13 ± 0.4 µM. Further, the Kd on r(CGG) repeats was 0.076 ± 0.004 µM.
As to CGGCGGCGGCGGCGGCGGCGGCGGCGGCGGCGGCGG (structured_RNA) [r(CGG)12], the binding result in the series with DGCR8Δ [2] is listed as “binds”.
On to CCGCCGCCGCCGCCGCCGCCGCCG (ssDNA) [d(CCG)8], for which the binding result with DGCR8Δ [3] is “no binding”.
With CCGCCGCCGCCGCCGCCGCCGCCGCCGCCGCCGCCG (ssDNA) [d(CCG)12], the binding result with DGCR8Δ [3] is recorded as “no binding”.
